Data on eight compounds can be found in PubChem BioAssay (NCI).

The structures appear in SMILES notation.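 Results reflect a 48-hour exposure of cells in 96-well plates to compound at five concentrations. The concentration for 50% growth inhibition is given as GI50. TGI: concentration producing complete growth inhibition.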

What all share (test): growth of human tumour cells (NCI), 48 h
The test system of assay [1] is RXF 393 renal.
The subject of assay [2] is UACC-257 melanoma.
For assay [3], the system named is DU-145 prostate.
Assay [4] concerns 786-0 renal.
Assay [5] relates to SR leukemia.
Assay [6] has as its system KM12 colon.
The test system of assay [7] is HT29 colon.
Assay [8] concerns SF-295 CNS.
The subject of assay [9] is RPMI-8226 leukemia.

Take `CC/C=C\C[C@@H](O)C/C=C1/C(=O)C=C[C@H]1C/C=C\CCCC(=O)OC`: the GI50 was 1.85 µM in assay [1]; 3.38 µM in assay [2]; 3.33 µM in [3]; 3.29 µM in [4]; 0.686 µM in assay [5]; 1.65 µM in assay [6]. Also, the values for the GI50 in assay [7], in assay [8] and in [9] were 2.36 µM, 2.97 µM and 1.83 µM, respectively. In addition, the TGI in assay [1] came out at 3.55 µM; in assay [2] it was 8.36 µM; in assay [3], 12.3 µM; in assay [4] it was 11.5 µM; in assay [5], 4 µM; in [6] it was 3.84 µM. For the same compound, the TGI in assay [7] was 5.74 µM; in assay [8], 9.27 µM; in assay [9], 7.4 µM.
As to `CC[C@@]1(c2ccccc2)C2=C(CC(C)(C)CC2=O)Nc2[nH]ncc21`, the GI50 in assay [1], in assay [2], in assay [3], in [4], in [5] and in assay [6] was greater than 100 µM throughout. The GI50 in [7], in assay [8] and in assay [9] was greater than 100 µM throughout. Besides, the TGI in assay [1], in [2], in assay [3], in assay [4], in assay [5] and in [6] was greater than 100 µM in each case. Also, the TGI in assay [7], in assay [8] and in assay [9] was greater than 100 µM each time.
Turning to `CCCCCCCC(=O)OCC/C=C/C1OC1C1OC(=O)/C=C\C=C\c2nc(oc2C)/C=C(/C)CCC2OC2C1OC(=O)NC(C)=O` (stereo not given), the GI50 in [1] was 0.0184 µM; in assay [2], 0.0301 µM; in [3], 0.0526 µM; in [4] it was 0.033 µM; in assay [5], 0.0173 µM; in [6], 0.0271 µM. Besides, the GI50 in [7] was 0.0397 µM; in assay [8], 0.00904 µM; in assay [9] it was 0.0241 µM. The TGI in assay [1] worked out at 0.0562 µM; in assay [2] it was 0.125 µM; in assay [3], 1.37 µM; in [4], 0.203 µM; in [5], 0.89 µM; in assay [6], 0.119 µM. In addition, the TGI stood at 1.12 µM in assay [7], 0.0548 µM in assay [8] and 1.04 µM in [9].
With `CCCCCCCCn1ccc2cc(NC(=O)Cn3cc(CN4CCCC4)nn3)ccc21`, the GI50 is 1.6 µM in [1]; 1.86 µM in [2]; 3.12 µM in assay [3]; 1.69 µM in [4]; 2.3 µM in assay [5]; 1.95 µM in assay [6]. Besides, the GI50 in assay [7] is 1.97 µM; in assay [8] it was 1.87 µM; in assay [9] it was 2.18 µM. For the same compound, the TGI in assay [1] turned out to be 3.37 µM; in assay [2], 3.57 µM; in assay [3], 9.61 µM; in assay [4], 3.13 µM; in assay [5], 6.34 µM; in [6] it was 3.98 µM. Also, the results for the TGI in [7], in assay [8] and in assay [9] were 4.09 µM, 3.72 µM and 5.17 µM, respectively.
On to `C[N+]1=C(/C=C/c2ccc(O)c3ncccc23)C(C)(C)c2ccccc21`, for which the GI50 is 4 µM in assay [1]; 3.81 µM in assay [2]; 2.98 µM in assay [3]; 3.57 µM in assay [4]; 2.13 µM in [5]; 2.97 µM in [6]. Moreover, the GI50 in [7] is 3.19 µM; in assay [8] it was 2.21 µM; in assay [9], 2.48 µM. The TGI in assay [1] worked out at 16 µM; in assay [2] it was 13.5 µM; in assay [3], 12.1 µM; in assay [4], 13 µM; in [5], 15 µM; in assay [6], 10.5 µM. Besides, the figures for the TGI in [7], in assay [8] and in assay [9] were 12.6 µM, 5.24 µM and 10.3 µM, respectively.
As for `COC(=O)Nc1nc2ccc(Oc3ccc(NC(=O)Nc4cc(C(F)(F)F)ccc4F)cc3)cc2s1`, the GI50 in assay [1] is greater than 25 µM; in [2], greater than 25 µM; in assay [3], 10.6 µM; in assay [4], greater than 25 µM; in [5], 5.66 µM; in assay [6], 0.0859 µM. In addition, the figures for the GI50 in assay [7], in assay [8] and in assay [9] were 12.7 µM, 24.8 µM and greater than 25 µM, respectively. Also, the TGI in [1], in assay [2], in assay [3], in assay [4], in assay [5] and in assay [6] was greater than 25 µM throughout. Also, the TGI in assay [7], in [8] and in [9] was greater than 25 µM throughout.
In the case of `N#CSC1CCCCNC1=O` (stereo not given), the TGI in assay [1] is 34 µM; in [2] it was 34.6 µM; in [3] it was 32.8 µM; in assay [4], 32.6 µM; in assay [5], 38.9 µM; in assay [6] it was 31.3 µM. Also, the results for the TGI in [7], in assay [8] and in assay [9] were 26.5 µM, 30.7 µM and 29.3 µM, respectively.
With `COc1ccc2c(c1)CCCN2c1c2ccccc2nc2ccccc12`, the GI50 in assay [1] is 0.27 µM; in assay [2] it was 8.11 µM; in assay [3], 0.38 µM; in [4], 0.549 µM; in assay [5] it was 0.383 µM; in assay [6] it was 0.386 µM. For the same compound, the GI50 in assay [7] is 0.36 µM; in [8], 0.281 µM; in assay [9], 0.431 µM. The TGI is 0.786 µM in assay [1]; greater than 100 µM in assay [2]; greater than 100 µM in [3]; 9.3 µM in assay [4]; greater than 100 µM in assay [5]; 15.6 µM in assay [6]. The values for the TGI in assay [7], in assay [8] and in assay [9] were greater than 100 µM, greater than 100 µM and 4.98 µM, respectively.
